Measurements taken from US9849130B2 (KamTek, Inc., priority 2014, dated 2017).
Values after ≈ are worked out from the molar mass of the structure shown.

What was measured:
[1] = tested on: Fusobacterium; assay: MIC by microdilution in Brucella broth against Fusobacterium; type: cell-based, Fusobacterium spp.; conditions: Brucella broth
[2] = tested on: Enterococci faecium; assay: MIC by microdilution in Mueller-Hinton broth against Enterococci faecium strains; type: cell-based, Enterococcus faecium; conditions: Mueller-Hinton broth
[3] = tested on: C. perfringens MH310; assay: microbe, parasite or virus in culture; type: cell-based; conditions: C. perfringens MH310
[4] = tested on: Bifidobacterium strains; assay: MIC by microdilution in BHI broth against Bifidobacterium strains; type: cell-based, Bifidobacterium spp.; conditions: BHI broth
[5] = tested on: Bacteroides Strains; assay: MIC by microdilution in Brucella broth against Bacteroides strains; type: cell-based, Bacteroides spp.
[6] = tested on: Enterococcus faecalis; assay: MIC by microdilution in Mueller-Hinton broth against Enterococcus faecalis strains; type: cell-based
[7] = tested on: Escherichia coli strains; assay: MIC by microdilution in Mueller-Hinton broth against Escherichia coli strains; type: cell-based; conditions: for MIC: Mueller-Hinton broth
[8] = tested on: Clostridium difficile (CD) strains; assay: microbe, parasite or virus in culture; type: cell-based
[9] = tested on: Lactobacillus strains; assay: MIC against Lactobacillus strains; type: cell-based, Lactobacillus spp.; conditions: broth microdilution, BHI with 0.02% Tween 80, pH 6.0
[10] = tested on: Lachnospiraceae and related bacterial strains; assay: MIC against Lachnospiraceae and related bacterial strains; type: cell-based, Lachnospiraceae spp.; conditions: broth microdilution, brucella broth

CCN=c1cc2n(-c3ccc(Cl)cc3)c3ccccc3nc-2cc1Nc1ccc(Cl)cc1 [B746]
MIC ([1]; F. nucleatum HM-75): 16 µg/mL (≈ 34.8 µM) | MIC ([1]; F. nucleatum HM-260): >32 µg/mL | MIC ([1]; F. nucleatum HM-992): 16 µg/mL (≈ 34.8 µM) | MIC ([1]; F. nucleatum HM-993): 2 µg/mL (≈ 4.35 µM) | MIC ([1]; F. nucleatum HM-994): 8 µg/mL (≈ 17.4 µM) | MIC ([1]; F. nucleatum HM-995): 16 µg/mL (≈ 34.8 µM) | MIC ([1]; F. nucleatum HM-996): 32 µg/mL (≈ 69.7 µM) | MIC ([1]; F. nucleatum HM-997): 16 µg/mL (≈ 34.8 µM) | MIC ([1]; Fusobacterium sp. HM 42): >32 µg/mL | MIC ([1]; Fusobacterium sp. HM 57): >32 µg/mL | MIC ([1]; Fusobacterium sp. HM-556): 8 µg/mL (≈ 17.4 µM) | MIC ([1]; Fusobacterium sp. HM-758): >32 µg/mL | MIC ([1]; Fusobacterium sp. HM-871): 8 µg/mL (≈ 17.4 µM) | MIC ([1]; Fusobacterium sp. HM-874): 16 µg/mL (≈ 34.8 µM) | MIC ([1]; Fusobacterium sp. HM-875): 8 µg/mL (≈ 17.4 µM) | MIC ([2]; E. faecium NR 31903): 2 µg/mL (≈ 4.35 µM) | MIC ([2]; E. faecium NR 31909): 2 µg/mL (≈ 4.35 µM) | MIC ([2]; E. faecium NR 31912): 2 µg/mL (≈ 4.35 µM) | MIC ([2]; E. faecium NR 31915): 2 µg/mL (≈ 4.35 µM) | MIC ([2]; E. faecium NR 31916): 2 µg/mL (≈ 4.35 µM) | MIC ([3]; BB): 0.5 µg/mL (≈ 1.09 µM) | MIC ([3]; BHI): 1 µg/mL (≈ 2.18 µM) | MIC ([4]; Bifidobacterium adolescentis HM-633): 2 µg/mL (≈ 4.35 µM) | MIC ([4]; Bifidobacterium breve HM-411): 4 µg/mL (≈ 8.71 µM) | MIC ([4]; Bifidobacterium breve HM-412): 4 µg/mL (≈ 8.71 µM) | MIC ([4]; Bifidobacterium breve HM-856): 32 µg/mL (≈ 69.7 µM) | MIC ([4]; Bifidobacterium breve HM-1120): >32 µg/mL | MIC ([4]; Bifidobacterium longum HM-845): 2 µg/mL (≈ 4.35 µM) | MIC ([4]; Bifidobacterium longum HM-846): 2 µg/mL (≈ 4.35 µM) | MIC ([4]; Bifidobacterium longum HM-847): 2 µg/mL (≈ 4.35 µM) | MIC ([4]; Bifidobacterium sp. HM-30): 1 µg/mL (≈ 2.18 µM) | MIC ([4]; Bifidobacterium sp. HM-868): 2 µg/mL (≈ 4.35 µM) | MIC ([5]; B. caccae HM728): 1 µg/mL (≈ 2.18 µM) | MIC ([5]; B. eggerthii HM210): 2 µg/mL (≈ 4.35 µM) | MIC ([5]; B. fragilis HM709): 4 µg/mL (≈ 8.71 µM) | MIC ([5]; B. fragilis HM710): 2 µg/mL (≈ 4.35 µM) | MIC ([5]; B. fragilis HM714): 4 µg/mL (≈ 8.71 µM) | MIC ([5]; B. ovatus HM222): 0.25 µg/mL (≈ 0.544 µM) | MIC ([5]; B. spp. HM18): 1 µg/mL (≈ 2.18 µM) | MIC ([5]; B. spp. HM19): 2 µg/mL (≈ 4.35 µM) | MIC ([5]; B. spp. HM20): 1 µg/mL (≈ 2.18 µM) | MIC ([5]; B. spp. HM22): 1 µg/mL (≈ 2.18 µM) | MIC ([5]; B. spp. HM23): 2 µg/mL (≈ 4.35 µM) | MIC ([5]; B. spp. HM27): 1 µg/mL (≈ 2.18 µM) | MIC ([5]; B. spp. HM28): 2 µg/mL (≈ 4.35 µM) | MIC ([5]; B. spp. HM58): 1 µg/mL (≈ 2.18 µM) | MIC ([5]; B. stercoris HM1036): 1 µg/mL (≈ 2.18 µM) | MIC ([6]; E. faecalis NR 31884): 4 µg/mL (≈ 8.71 µM) | MIC ([6]; E. faecalis NR 31885): 4 µg/mL (≈ 8.71 µM) | MIC ([6]; E. faecalis NR 31886): 8 µg/mL (≈ 17.4 µM) | MIC ([6]; E. faecalis NR 31887): 4 µg/mL (≈ 8.71 µM) | MIC ([6]; E. faecalis NR 31888): 8 µg/mL (≈ 17.4 µM) | activity against E. coli (in words) [7]: relatively inactive | MIC ([7]; Escherichia coli strain NR 6): >32 µg/mL | MIC ([7]; Escherichia coli strain NR 8): >32 µg/mL | MIC ([7]; Escherichia coli strain NR 96): >32 µg/mL | MIC ([7]; Escherichia coli strain NR 104): >32 µg/mL | MIC ([7]; Escherichia coli strain NR 17626): >32 µg/mL | MIC ([7]; Escherichia coli strain NR 17627): >32 µg/mL | MIC ([7]; Escherichia coli strain NR 17633): >32 µg/mL | MIC ([7]; Escherichia coli strain NR 17647): >32 µg/mL | MIC ([7]; Escherichia coli strain NR 17650): >32 µg/mL | MIC ([7]; Escherichia coli strain NR 17661): >32 µg/mL | antibacterial activity against CD, fold greater than MET [8]: 16 fold | antibacterial activity against CD, fold greater than VAN [8]: 8 fold | MIC ([8]; CD strain BAA1805 (hyper-virulent strain BI/NAP1/027), BB): 0.25 µg/mL (≈ 0.544 µM) | MIC50 ([8]; n = 37): 0.125 µg/mL (≈ 0.272 µM) | MIC90 ([8]; n = 37): 0.25 µg/mL (≈ 0.544 µM) | MIC Range ([8]; n = 37): ≦0.031-0.5 μg/ml | MIC ([9]; Lactobacillus crispatus HM-637): 8 µg/mL (≈ 17.4 µM) | MIC ([9]; Lactobacillus gasseri HM-104): 16 µg/mL (≈ 34.8 µM) | MIC ([9]; Lactobacillus iners HM-126): 4 µg/mL (≈ 8.71 µM) | MIC ([9]; Lactobacillus jensenii HM-105): >32 µg/mL | MIC ([9]; Lactobacillus jhonsonii HM-643): 32 µg/mL (≈ 69.7 µM) | MIC ([9]; Lactobacillus reuteri HM-102): 32 µg/mL (≈ 69.7 µM) | MIC ([9]; Lactobacillus rhamnosus HM-106): >32 µg/mL | MIC ([9]; Lactobacillus sp. HM-228): 4 µg/mL (≈ 8.71 µM) | MIC ([9]; Lactobacillus sp. HM-478): 16 µg/mL (≈ 34.8 µM) | MIC ([9]; Lactobacillus vaginalis HM-405): 4 µg/mL (≈ 8.71 µM) | MIC ([10]; Clostridiales bacterium HM-84): 0.062 µg/mL (≈ 0.135 µM) | MIC ([10]; Clostridiales bacterium HM-182): 1 µg/mL (≈ 2.18 µM) | MIC ([10]; Eubacterium sp. HM-178): 0.5 µg/mL (≈ 1.09 µM) | MIC ([10]; Lachnospiraceae sp. HM-7): ≦0.031 μg/ml | MIC ([10]; Lachnospiraceae sp. HM-150): 0.5 µg/mL (≈ 1.09 µM) | MIC ([10]; Lachnospiraceae sp. HM-153): 0.5 µg/mL (≈ 1.09 µM) | MIC ([10]; Lachnospiraceae sp. HM-154): 0.5 µg/mL (≈ 1.09 µM) | MIC ([10]; Lachnospiraceae sp. HM-157): 0.5 µg/mL (≈ 1.09 µM) | MIC ([10]; Lachnospiraceae sp. HM-161): 0.25 µg/mL (≈ 0.544 µM) | MIC ([10]; Lachnospiraceae sp. HM-480): 0.125 µg/mL (≈ 0.272 µM) | MIC ([10]; Lachnospiraceae sp. HM-558): 0.125 µg/mL (≈ 0.272 µM) | MIC ([10]; Lachnospiraceae sp. HM-768): ≦0.031 μg/ml | MIC ([10]; Lachnospiraceae sp. HM-868): 2 µg/mL (≈ 4.35 µM) | MIC ([10]; Peptostreptococcaceae sp. HM-766): 1 µg/mL (≈ 2.18 µM)
